Values of other authors, collected in US20090023700A1, “NEUROPROTECTIVE TREATMENTS” (University of Louisville Research Foundation, priority 2007, published 2009).

Test system: AP1
Conditions: macrophages; cited from earlier work

For O=C(O)c1ccccn1.OO.OO.[K+].[K+].[O]=[V] [bpV(pic), potassium bisperoxo(pyridine-2-carboxylato)oxovanadate(V)], the AP1 activation is listed as “does not”.
